Test results from patent publication US9995734B2, “Human T cell line assay for evaluating the immunologic identity of glatiramer acetate preparations” (Mylan Inc., priority 2013, dated 2018).

Tested on: Donor 3 GMA T-Cell Lines
Test: ATP proliferation assay (CellTiter Glo), Donor 3 GMA T-cell lines, incl. reactivity to non-canonical GA peptides
Format: cell-based, human
Details: for ATP proliferation assay: Day 14

Substance: glatiramer acetate [GMA]
- ratio of proliferation in response to GMA:control (APC only): greater than 3.0
- ATP proliferation assay (165-B2G, 10 μg/mL, control 9692): 28770 RLU
- response in proliferation assay (165-B5G, 165-D8G, 165-E7G, 165-F5G, Day 56, 0, 1, 5, 10, 100 μg/mL, GMA and COP responses comparable): responded well
- ATP proliferation assay (165-B5G, 10 μg/mL, control 15423): 63023 RLU
- ATP proliferation assay (165-B11G, 10 μg/mL, control 18412): 56588 RLU
- ATP proliferation assay (165-C4G, 10 μg/mL, control 14869): 62306 RLU
- ATP proliferation assay (165-C5G, 10 μg/mL, control 14240): 76296 RLU
- ATP proliferation assay (165-C8G, 10 μg/mL, control 18205): 79281 RLU
- ATP proliferation assay (165-D8G, 10 μg/mL, control 30331): 136938 RLU
- ATP proliferation assay (165-E7G, 10 μg/mL, control 18215): 66364 RLU
- ATP proliferation assay (165-E9G, 10 μg/mL, control 17059): 52948 RLU
- ATP proliferation assay (165-F2G, 10 μg/mL, control 14734): 44951 RLU
- ATP proliferation assay (165-F5G, 10 μg/mL, control 16943): 100677 RLU
- ATP proliferation assay (165-F8G, 10 μg/mL, control 17986): 72716 RLU
- ATP proliferation assay (165-F10G, 10 μg/mL, control 13314): 42447 RLU
- ATP proliferation assay (165-H11G, 10 μg/mL, control 17149): 52850 RLU
- Proliferation (luminescent ATP assay), Mean (T-cell line 165-05G, 1 μg/mL antigen, Day 50 of culturing, No Antigen Value 2149): 3999 RLU
- Proliferation (luminescent ATP assay), Mean (T-cell line 165-05G, 3 μg/mL antigen, Day 50 of culturing, No Antigen Value 2149): 35643 RLU
- Proliferation (luminescent ATP assay), Mean (T-cell line 165-05G, 10 μg/mL antigen, Day 50 of culturing, No Antigen Value 2149): 53130 RLU
- Proliferation (luminescent ATP assay), Mean (T-cell line 165-05G, 30 μg/mL antigen, Day 50 of culturing, No Antigen Value 2149): 55596 RLU
- Mean, ATP proliferation assay (T-cell line 165-B2G, 1 μg/mL, Day 40): 4034
- Mean, ATP proliferation assay (T-cell line 165-B2G, 3 μg/mL, Day 40): 20994
- Mean, ATP proliferation assay (T-cell line 165-B2G, 10 μg/mL, Day 40): 38244
- Mean, ATP proliferation assay (T-cell line 165-B5G, 1 μg/mL, Day 40): 3866
- Proliferation (luminescent ATP assay), Mean (T-cell line 165-B5G, 1.25 μg/mL antigen, Day 55 of culturing, No Antigen Value 846): 1406 RLU
- Proliferation (luminescent ATP assay), Mean (T-cell line 165-B5G, 2.5 μg/mL antigen, Day 55 of culturing, No Antigen Value 846): 2537 RLU
- Mean, ATP proliferation assay (T-cell line 165-B5G, 3 μg/mL, Day 40): 6591
- Proliferation (luminescent ATP assay), Mean (T-cell line 165-B5G, 5 μg/mL antigen, Day 55 of culturing, No Antigen Value 846): 5205 RLU
- Proliferation (luminescent ATP assay), Mean (T-cell line 165-B5G, 10 μg/mL antigen, Day 55 of culturing, No Antigen Value 846): 11364 RLU
- Mean, ATP proliferation assay (T-cell line 165-B5G, 10 μg/mL, Day 40): 12367
- Mean, ATP proliferation assay (T-cell line 165-C4G, 1 μg/mL, Day 40): 3434
- Mean, ATP proliferation assay (T-cell line 165-C4G, 3 μg/mL, Day 40): 6312
- Mean, ATP proliferation assay (T-cell line 165-C4G, 10 μg/mL, Day 40): 19169
- Mean, ATP proliferation assay (T-cell line 165-C5G, 1 μg/mL, Day 40): 12236
- Proliferation (luminescent ATP assay), Mean (T-cell line 165-C5G, 1.25 μg/mL antigen, autologous B-LCL): 2511 RLU
- Proliferation (luminescent ATP assay), Mean (T-cell line 165-C5G, 2.5 μg/mL antigen, autologous B-LCL): 26253 RLU
- Mean, ATP proliferation assay (T-cell line 165-C5G, 3 μg/mL, Day 40): 36288
- Proliferation (luminescent ATP assay), Mean (T-cell line 165-C5G, 5 μg/mL antigen, autologous B-LCL): 67559 RLU
- Proliferation (luminescent ATP assay), Mean (T-cell line 165-C5G, 10 μg/mL antigen, autologous B-LCL): 74630 RLU
- Mean, ATP proliferation assay (T-cell line 165-C5G, 10 μg/mL, Day 40): 45444
- Mean, ATP proliferation assay (T-cell line 165-C8G, 1 μg/mL, tested with the Donor 3 COP lines of Table 25): 5605 RLU
- Mean, ATP proliferation assay (T-cell line 165-C8G, 3 μg/mL, tested with the Donor 3 COP lines of Table 25): 5002 RLU
- Mean, ATP proliferation assay (T-cell line 165-C8G, 10 μg/mL, tested with the Donor 3 COP lines of Table 25): 30200 RLU
- Mean, ATP proliferation assay (T-cell line 165-D8G, 1 μg/mL, Day 40): 9427
- Mean, ATP proliferation assay (T-cell line 165-D8G, 3 μg/mL, Day 40): 12644
- Mean, ATP proliferation assay (T-cell line 165-D8G, 10 μg/mL, Day 40): 31264
- Mean, ATP proliferation assay (T-cell line 165-E7G, 1 μg/mL, Day 40): 2569
- Proliferation (luminescent ATP assay), Mean (T-cell line 165-E7G, 1.25 μg/mL antigen, autologous B-LCL, Day 55): 8875 RLU
- Proliferation (luminescent ATP assay), Mean (T-cell line 165-E7G, 2.5 μg/mL antigen, autologous B-LCL, Day 55): 10248 RLU
- Mean, ATP proliferation assay (T-cell line 165-E7G, 3 μg/mL, Day 40): 6610
- Proliferation (luminescent ATP assay), Mean (T-cell line 165-E7G, 5 μg/mL antigen, autologous B-LCL, Day 55): 26934 RLU
- Proliferation (luminescent ATP assay), Mean (T-cell line 165-E7G, 10 μg/mL antigen, autologous B-LCL, Day 55): 30721 RLU
- Mean, ATP proliferation assay (T-cell line 165-E7G, 10 μg/mL, Day 40): 14279
- Proliferation (luminescent ATP assay), Mean (T-cell line 165-E9G, 1 μg/mL antigen, Day 50 of culturing, No Antigen Value 1742): 1889 RLU
- Mean, ATP proliferation assay (T-cell line 165-E9G, 1 μg/mL, Day 40): 2961
- Proliferation (luminescent ATP assay), Mean (T-cell line 165-E9G, 1.25 μg/mL antigen, autologous B-LCL): 253 RLU
- Proliferation (luminescent ATP assay), Mean (T-cell line 165-E9G, 2.5 μg/mL antigen, autologous B-LCL): 1647 RLU
- Proliferation (luminescent ATP assay), Mean (T-cell line 165-E9G, 3 μg/mL antigen, Day 50 of culturing, No Antigen Value 1742): 5974 RLU
- Mean, ATP proliferation assay (T-cell line 165-E9G, 3 μg/mL, Day 40): 7837
- Proliferation (luminescent ATP assay), Mean (T-cell line 165-E9G, 5 μg/mL antigen, autologous B-LCL): 12964 RLU
- Proliferation (luminescent ATP assay), Mean (T-cell line 165-E9G, 10 μg/mL antigen, autologous B-LCL): 13809 RLU
